Laboratory results from US8193213B2, “Spermicidal and/or antifungal composition and methods of using the same” (priority 2003, dated 2012).
Marks after values point to notes of the source that are not given here. Each block holds one molecule with its values, some of them ahead of it.

What was measured:
[1] = tested on: adult male Swiss mice; experiment: Antispermatogenic screen: single gavage dose to male mice, testes weight and Spermatogenic Index at 72 h; type: in vivo; conditions: racemic compounds, day 3 (72 h), vehicle 90% water, 7% Tween20, 3% ethanol
Description: The compounds of the invention were tested in mice for their effects on spermatogenesis three days after a single oral dose by the procedure described in Cook et al (1995) below. Compounds active in this test have been shown also to be anti-fertility compounds.
Compounds were screened for antispermatogenic activity by dosing male mice on day 1 with a gavage dose of control vehicle, positive control (compound 1) or compound of the invention. At 72 h after dosing, animals were killed and the testes were excised, trimmed of fat, and weighed. One testis was examined histologically and rated for spermatogenic potential using the Spermatogenic Index (J. M. Whitsett, P. F. Noden, J. Cherry and A. D. Lawton, J. Reprod. Fertil., 72, 277 (1984), which is a semiquantitative estimate of the sperm producing ability of the testes The index is based on histological appearance of the spermatogenic cells in the seminiferous tubules. A scale of 1 to 6 is used with 5 to 6 being the normal status. A second assessment was based on the weight of the testes.
Tables 1 and 2 show pertinent biological results in terms of the change in testes weight (TW) and spermatogenic index (SI) relative to a control containing only the administration vehicle, but no indenopyridine. In Tables 1 and 2, R^3 and R^4 refer to structures Ib, where R^3 is in the para position; R^1 is ethyl; R^2 is methyl; and R^5 is hydrogen.

[2] = tested on: Aspergillus fumigatus; experiment: Antifungal susceptibility testing (NCCLS, MIC/MFC) against A. fumigatus; type: cell-based; parameters: Lowest [Active]: unit not given here; conditions: for CFU for MFC at 100 / CFU for MFC at 200 / CFU for MFC at 300 / Lowest [Active]: A. fumigatus (48 hours); for CFU for MFC at 100: concentration 100; for CFU for MFC at 200: concentration 200; for CFU for MFC at 300: concentration 300; for Lowest [Active]: concentrations 300, 200, 100, unit not given, N/A = no active concentration
Description: (§1) Antifungal susceptibility testing was performed following the NCCLS guidelines with minor modifications. Briefly, a suspension of Candida albicans cells was prepared from pure cultures grown overnight on yeast-malt extract (YM) agar at 35° C. Several small colonies were removed from a YM agar plate and transferred to 5 ml of 0.85% saline. The cells were suspended by 15 seconds of vortexing and the cell density of the resulting suspension was determined using a spectrophotometer. The cell density was adjusted by addition of 0.85% saline until the transmittance matched that of a 0.5 McFarland standard when measured at a wavelength of 530 nm. An aliquot of this suspension was diluted 1:1000 in RPMI-MOPS to yield a working suspension. A similar suspension of Aspergillus fumigatus spores was obtained by using spores stored at […] in 0.85% saline. These spores were diluted in 0.85% saline to match the McFarland standard transmittance. This suspension was then further diluted 1:50 in RPMI-MOPS to produce the working inoculum suspension.
(§2) Dilution series of the test compounds were made in RPMI-MOPS containing 2% DMSO. An aliquot of each dilution was added in duplicate to the wells of a sterile 96-well, flat bottom microtiter plate. Then, an aliquot of either the C. albicans cell suspension or the A. fumigatus spore suspension were added to each well for a final volume of 200 μl. The plates were then incubated at […]. […] A similar determination was made for the A. fumigatus plates after 48 hours. […] The numbers of colony forming units (CFU) were counted and these values used to calculate the percent survival of cells or spores in inocula relative to the number of CFUs in the working inoculum suspension. The minimum fungicidal concentration (MFC) was the lowest concentration of test compound with a percent survival of less than 2%.

[3] = tested on: Candida albicans; experiment: Antifungal susceptibility testing (NCCLS, MIC/MFC) against C. albicans; type: cell-based; parameters: Lowest [Active]: unit not given here; conditions: for CFU for MFC at 200: concentration 200; for CFU for MFC at 300: concentration 300; for Lowest [Active]: concentrations 300, 200, 100, unit not given, N/A = no active concentration
Description: as §1, §2

SMILES: CCN1CC[C@@H]2[C@@H](c3ccc(C(=O)O)cc3)c3cc(C)c(I)cc3[C@@H]2C1.Cl (racemic) [Compound 17, (4aRS,5SR,9bRS)-2-Ethyl-2,3,4,4a,5,9b-hexahydro-8-iodo-7-methyl-5-(4-carboxyphenyl)-1H-indeno[1,2-c]pyridine Hydrochloride]
SI change (%) (Spermatogenic Index, % change from vehicle control) ([1]; 1 mg/kg single gavage dose): −67%* | TW change (%) (testes weight, % change from vehicle control) ([1]; 1 mg/kg single gavage dose): −18% | SI change (%) (Spermatogenic Index, % change from vehicle control) ([1]; 3 mg/kg single gavage dose): −66%* | TW change (%) (testes weight, % change from vehicle control) ([1]; 3 mg/kg single gavage dose): −9% | SI change (%) (Spermatogenic Index, % change from vehicle control) ([1]; 10 mg/kg single gavage dose): −76%* | TW change (%) (testes weight, % change from vehicle control) ([1]; 10 mg/kg single gavage dose): −32%*

SMILES: CCN1CC[C@@H]2[C@@H](c3ccc(C(=O)O)cc3)c3cc(C)c(Cl)cc3[C@@H]2C1.Cl (racemic) [Compound 20, (4aRS,5SR,9bRS)-2-Ethyl-8-Chloro-7-Methyl-2,3,4,4a,5,9b-Hexahydro-5-(4-carboxylphenyl)-1H-Indeno[1,2-c]pyridine Hydrochloride]
SI change (%) (Spermatogenic Index, % change from vehicle control) ([1]; 1 mg/kg single gavage dose): −55%* | TW change (%) (testes weight, % change from vehicle control) ([1]; 1 mg/kg single gavage dose): −16% | SI change (%) (Spermatogenic Index, % change from vehicle control) ([1]; 3 mg/kg single gavage dose): −66%* | TW change (%) (testes weight, % change from vehicle control) ([1]; 3 mg/kg single gavage dose): −23% | SI change (%) (Spermatogenic Index, % change from vehicle control) ([1]; 10 mg/kg single gavage dose): −72%* | TW change (%) (testes weight, % change from vehicle control) ([1]; 10 mg/kg single gavage dose): −22%

SMILES: CCN1CCC2C(C1)c1ccc(C)cc1C2c1ccc(OC)cc1.Cl (racemic) [Compound 4587-029]
CFU for MFC at 100 [2]: Cidal (Cidal = >98% killed) | CFU for MFC at 200 [2]: Cidal (Cidal = >98% killed) | CFU for MFC at 300 [2]: Cidal (Cidal = >98% killed) | Lowest [Active] [2]: 100 | CFU for MFC at 200 ([3]; C. albicans (19 hours)): Static (Static = well looked clear, but <98% killed) | CFU for MFC at 300 ([3]; C. albicans (19 hours)): Cidal (Cidal = >98% killed) | Lowest [Active] ([3]; C. albicans (19 hours)): 200

SMILES: CCN1CCC2C(C1)c1ccccc1C2c1ccccc1.Cl (racemic) [Compound 4587-037]
CFU for MFC at 200 [2]: Cidal (Cidal = >98% killed) | CFU for MFC at 300 [2]: Static* (Static = well looked clear, but <98% killed) | Lowest [Active] [2]: 200 | CFU for MFC at 300 ([3]; C. albicans (19 hours)): Cidal (Cidal = >98% killed) | Lowest [Active] ([3]; C. albicans (19 hours)): 300

SMILES: CCN1CCC2=C(c3ccc(C)cc3)c3cc(C)ccc3C2C1.Cl (racemic) [Compound 4587-040]
CFU for MFC at 100 [2]: Cidal (Cidal = >98% killed) | CFU for MFC at 200 [2]: Cidal (Cidal = >98% killed) | CFU for MFC at 300 [2]: Cidal (Cidal = >98% killed) | Lowest [Active] [2]: 100 | CFU for MFC at 100 ([3]; C. albicans (19 hours), concentration 100): Cidal (Cidal = >98% killed) | CFU for MFC at 200 ([3]; C. albicans (19 hours)): Cidal (Cidal = >98% killed) | CFU for MFC at 300 ([3]; C. albicans (19 hours)): Cidal (Cidal = >98% killed) | Lowest [Active] ([3]; C. albicans (19 hours)): 100

SMILES: CCN1CCC2C(C1)c1ccc(C)cc1C2c1ccc(CO)cc1.Cl (racemic) [Compound 4587-055]
CFU for MFC at 300 ([3]; C. albicans (19 hours)): Static (Static = well looked clear, but <98% killed) | Lowest [Active] ([3]; C. albicans (19 hours)): 300

SMILES: CCN1CCC2C(C1)c1ccc(C)cc1C2c1ccc(C#N)cc1.Cl (racemic) [Compound 4587-060]
CFU for MFC at 200 [2]: Cidal (Cidal = >98% killed) | Lowest [Active] [2]: 200

Lowest MIC ([2]; A. fumigatus, lowest concentration that appears to have no growth): 10 µg/mL | Lowest MIC ([3]; C. albicans, lowest concentration that appears to have no growth): 20 µg/mL
SMILES: CCCOC(=O)c1ccc(C2c3cc(C)ccc3C3CN(CC)CCC32)cc1.Cl (racemic) [Compound 4587-062]
Lowest MFC ([2]; A. fumigatus, lowest concentration that kills >= 98% of the cells in the well): 10 µg/mL | Lowest MFC ([3]; C. albicans, lowest concentration that kills >= 98% of the cells in the well): 20 µg/mL
